Assay results as given in ChEMBL document CHEMBL3593228, “Hedgehog inhibitors from Artocarpus communis and Hyptis suaveolens” (Bioorg Med Chem, 2015).
Activity calls are given as the source filed them. The rule behind the calls is not given here.

System: not listed separately
Test: Cytotoxicity against mouse C3H10T1/2 cells after 24 hrs by fluorometric microculture assay
Assay type: cell-based
Details: C3H 10T1/2, 24 h

Row | Structure (SMILES) | IC50
1 | CC(C)=CCCC1(C)Oc2c(O)ccc(CCC(=O)c3ccc(O)cc3O)c2CC1O (stereo not given) | > 75 µM
2 | C=C1C(=O)O[C@H]2/C=C(\C)C[C@@H]3C=C(C/C=C/[C@@](C)(OO)CC[C@H]12)C(=O)O3 | > 55.6 µM
3 | CC(C)=CCC/C(C)=C/Cc1c(O)cc2c(c1O)C(=O)C[C@@H](c1ccc(O)cc1)O2 [BONANNIONE A] | > 75 µM
4 | CC(C)=CCCC1(C)CCc2c(CCC(=O)c3ccc(O)cc3O)ccc(O)c2O1 (stereo not given) | > 75 µM
5 | COC(C)(C)CCC/C(C)=C/Cc1c(CCC(=O)c2ccc(O)cc2O)ccc(O)c1O | > 75 µM
6 | C=C1C(=O)O[C@H]2/C=C(\C)C[C@@H]3C=C(CC/C=C(\C)CC[C@H]12)C(=O)O3 | > 30.5 µM
7 | C=C1C(=O)O[C@H]2/C=C(\C)C[C@@H]3C=C(CC[C@@H](OO)C(=C)CC[C@H]12)C(=O)O3 | > 27.8 µM
8 | C=C1C(=O)O[C@H]2/C=C(\C)C[C@@H]3C=C(C/C=C/[C@@](C)(O)CC[C@H]12)C(=O)O3 | > 50 µM
9 | CC(C)=CCC/C(C)=C/Cc1c(CCC(=O)c2ccc(O)cc2O)ccc(O)c1O | > 75 µM
10 | CC1(C)CCC[C@]2(C)Oc3c(O)ccc(CCC(=O)c4ccc(O)cc4O)c3C[C@@H]12 | > 75 µM
11 | C/C(=C\Cc1c(CCC(=O)c2ccc(O)cc2O)ccc(O)c1O)CCCC(C)(C)O | > 75 µM

System: DU-145
Test: Cytotoxicity against Hh signaling abnormally activated human DU145 cells after 24 hrs by fluorometric microculture assay
Assay type: functional, cell-based
Details: DU-145, 24 h

Row | Structure (SMILES) | IC50
12 | C=C1C(=O)O[C@H]2/C=C(\C)C[C@@H]3C=C(C/C=C/[C@@](C)(OO)CC[C@H]12)C(=O)O3 | 30.3 µM
13 | C=C1C(=O)O[C@H]2/C=C(\C)C[C@@H]3C=C(CC/C=C(\C)CC[C@H]12)C(=O)O3 | 32.6 µM
14 | C=C1C(=O)O[C@H]2/C=C(\C)C[C@@H]3C=C(CC[C@@H](OO)C(=C)CC[C@H]12)C(=O)O3 | 18.8 µM
15 | CC(C)=CCC/C(C)=C/Cc1c(CCC(=O)c2ccc(O)cc2O)ccc(O)c1O | 80.6 µM
16 | CC1(C)CCC[C@]2(C)Oc3c(O)ccc(CCC(=O)c4ccc(O)cc4O)c3C[C@@H]12 | 53.7 µM

Target: T1, Zinc finger protein GLI1 (Homo sapiens) (UniProt P08151)
T1 sequence (whole entry): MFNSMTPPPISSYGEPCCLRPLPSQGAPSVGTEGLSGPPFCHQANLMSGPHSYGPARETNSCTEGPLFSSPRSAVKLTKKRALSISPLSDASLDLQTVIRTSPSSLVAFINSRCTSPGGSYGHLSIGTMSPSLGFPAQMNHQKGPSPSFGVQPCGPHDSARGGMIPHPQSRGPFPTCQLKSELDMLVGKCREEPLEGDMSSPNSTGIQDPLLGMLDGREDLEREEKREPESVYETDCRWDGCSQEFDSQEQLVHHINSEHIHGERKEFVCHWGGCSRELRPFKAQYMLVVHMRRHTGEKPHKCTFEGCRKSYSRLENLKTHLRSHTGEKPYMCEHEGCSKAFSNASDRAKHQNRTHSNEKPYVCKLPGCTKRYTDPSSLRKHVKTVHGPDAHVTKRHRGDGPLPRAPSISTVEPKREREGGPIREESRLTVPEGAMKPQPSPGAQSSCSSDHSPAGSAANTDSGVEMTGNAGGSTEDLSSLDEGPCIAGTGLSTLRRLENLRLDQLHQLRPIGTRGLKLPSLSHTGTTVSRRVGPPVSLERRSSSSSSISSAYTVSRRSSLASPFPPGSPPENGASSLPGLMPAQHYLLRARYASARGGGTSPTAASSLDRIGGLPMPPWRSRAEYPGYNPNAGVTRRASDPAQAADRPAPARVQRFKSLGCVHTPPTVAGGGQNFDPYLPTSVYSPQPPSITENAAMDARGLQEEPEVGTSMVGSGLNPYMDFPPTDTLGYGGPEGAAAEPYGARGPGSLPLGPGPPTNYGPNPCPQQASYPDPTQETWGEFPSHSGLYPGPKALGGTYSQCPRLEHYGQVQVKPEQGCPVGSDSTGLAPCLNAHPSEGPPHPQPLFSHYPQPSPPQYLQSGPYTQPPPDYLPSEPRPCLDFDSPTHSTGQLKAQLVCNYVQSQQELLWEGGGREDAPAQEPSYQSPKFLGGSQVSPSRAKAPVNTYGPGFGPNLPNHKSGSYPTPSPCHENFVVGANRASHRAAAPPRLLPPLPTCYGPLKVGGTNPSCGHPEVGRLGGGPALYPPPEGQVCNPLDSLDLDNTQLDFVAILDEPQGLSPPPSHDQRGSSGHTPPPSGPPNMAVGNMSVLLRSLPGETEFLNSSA
Test: Inhibition of GLI1-DNA (unknown origin) complex formation at 15 to 150 uM after 20 mins by electrophoretic mobility shift assay
Details: not given

Row | Structure (SMILES) | inhibition
17 | C=C1C(=O)O[C@H]2/C=C(\C)C[C@@H]3C=C(C/C=C/[C@@](C)(OO)CC[C@H]12)C(=O)O3 | Active
18 | C=C1C(=O)O[C@H]2/C=C(\C)C[C@@H]3C=C(CC/C=C(\C)CC[C@H]12)C(=O)O3 | inactive
19 | C=C1C(=O)O[C@H]2/C=C(\C)C[C@@H]3C=C(CC[C@@H](OO)C(=C)CC[C@H]12)C(=O)O3 | Active

System: not listed separately
Test: Inhibition of hedgehog signaling pathway in human HaCaT cells assessed as GLI1-mediated transcriptional activity after 12 hrs by luciferase assay
Assay type: cell-based
Details: not given

Row | Structure (SMILES) | IC50 | inhibition
20 | CC(C)=CCCC1(C)Oc2c(O)ccc(CCC(=O)c3ccc(O)cc3O)c2CC1O (stereo not given) | 40.1 µM | Dose-dependent effect
21 | C=C1C(=O)O[C@H]2/C=C(\C)C[C@@H]3C=C(C/C=C/[C@@](C)(OO)CC[C@H]12)C(=O)O3 | 7.6 µM | Dose-dependent effect
22 | CC(C)=CCC/C(C)=C/Cc1c(O)cc2c(c1O)C(=O)C[C@@H](c1ccc(O)cc1)O2 [BONANNIONE A] | 14.6 µM | Dose-dependent effect
23 | CC(C)(O)CCCC1(C)Oc2c(O)ccc(CCC(=O)c3ccc(O)cc3O)c2CC1O (stereo not given) | 43.5 µM | –
24 | CC(C)=CCCC1(C)CCc2c(CCC(=O)c3ccc(O)cc3O)ccc(O)c2O1 (stereo not given) | 44.2 µM | Dose-dependent effect
25 | COC(C)(C)CCC/C(C)=C/Cc1c(CCC(=O)c2ccc(O)cc2O)ccc(O)c1O | > 75 µM | –
26 | CC(C)(O)CCCC1(C)CCc2c(CCC(=O)c3ccc(O)cc3O)ccc(O)c2O1 (stereo not given) | 29.5 µM | –
27 | C=C1C(=O)O[C@H]2/C=C(\C)C[C@@H]3C=C(CC/C=C(\C)CC[C@H]12)C(=O)O3 | 4 µM | Dose-dependent effect
28 | COC(C)(C)CCCC1(C)CCc2c(CCC(=O)c3ccc(O)cc3O)ccc(O)c2O1 (stereo not given) | 39.9 µM | –
29 | C=C1C(=O)O[C@H]2/C=C(\C)C[C@@H]3C=C(CC[C@@H](OO)C(=C)CC[C@H]12)C(=O)O3 | 4.7 µM | Dose-dependent effect
30 | C=C1C(=O)O[C@H]2/C=C(\C)C[C@@H]3C=C(C/C=C/[C@@](C)(O)CC[C@H]12)C(=O)O3 | 16.3 µM | –
31 | CC(C)=CCC/C(C)=C/Cc1c(CCC(=O)c2ccc(O)cc2O)ccc(O)c1O | 23.6 µM | Dose-dependent effect
32 | CC1(C)CCC[C@]2(C)Oc3c(O)ccc(CCC(=O)c4ccc(O)cc4O)c3C[C@@H]12 | 40.7 µM | Dose-dependent effect
33 | C/C(=C\Cc1c(CCC(=O)c2ccc(O)cc2O)ccc(O)c1O)CCCC(C)(C)O | > 75 µM | –

System: not listed separately
Test: Inhibition of hedgehog signaling pathway in human DU145 cells assessed as reduction of BCL2 expression at 7 to 13.9 uM after 12 hrs by Western blotting
Assay type: cell-based
Details: DU-145

Row | Structure (SMILES) | inhibition
34 | C=C1C(=O)O[C@H]2/C=C(\C)C[C@@H]3C=C(C/C=C/[C@@](C)(OO)CC[C@H]12)C(=O)O3 | Active
35 | C=C1C(=O)O[C@H]2/C=C(\C)C[C@@H]3C=C(CC/C=C(\C)CC[C@H]12)C(=O)O3 | Active
36 | C=C1C(=O)O[C@H]2/C=C(\C)C[C@@H]3C=C(CC[C@@H](OO)C(=C)CC[C@H]12)C(=O)O3 | Active

System: not listed separately
Test: Inhibition of hedgehog signaling pathway in human HaCaT cells assessed as reduction of BCL2 expression at 7.6 uM after 12 hrs by Western blotting
Assay type: cell-based
Details: not given

Row | Structure (SMILES) | inhibition
37 | C=C1C(=O)O[C@H]2/C=C(\C)C[C@@H]3C=C(CC/C=C(\C)CC[C@H]12)C(=O)O3 | Active

System: not listed separately
Test: Inhibition of hedgehog signaling pathway in human HaCaT cells assessed as reduction of BCL2 expression after 12 hrs by Western blotting
Assay type: cell-based
Details: not given

Row | Structure (SMILES) | inhibition
38 | C=C1C(=O)O[C@H]2/C=C(\C)C[C@@H]3C=C(C/C=C/[C@@](C)(OO)CC[C@H]12)C(=O)O3 | Dose-dependent effect
39 | C=C1C(=O)O[C@H]2/C=C(\C)C[C@@H]3C=C(CC/C=C(\C)CC[C@H]12)C(=O)O3 | Dose-dependent effect
40 | C=C1C(=O)O[C@H]2/C=C(\C)C[C@@H]3C=C(CC[C@@H](OO)C(=C)CC[C@H]12)C(=O)O3 | Dose-dependent effect

Target: T1, Zinc finger protein GLI1 (Homo sapiens)
Test: Inhibition of GLI1-DNA (unknown origin) complex formation at 15 to 30 uM after 20 mins by electrophoretic mobility shift assay
Details: not given

Row | Structure (SMILES) | inhibition
41 | COC(C)(C)CCC/C(C)=C/Cc1c(CCC(=O)c2ccc(O)cc2O)ccc(O)c1O | Active
42 | CC(C)=CCC/C(C)=C/Cc1c(CCC(=O)c2ccc(O)cc2O)ccc(O)c1O | Active

System: not listed separately
Test: Cytotoxicity against Hh signaling abnormally activated human PANC1 cells after 24 hrs by fluorometric microculture assay
Assay type: functional, cell-based
Details: PANC-1, 24 h

Row | Structure (SMILES) | IC50
43 | CC(C)=CCCC1(C)Oc2c(O)ccc(CCC(=O)c3ccc(O)cc3O)c2CC1O (stereo not given) | 50 µM
44 | C=C1C(=O)O[C@H]2/C=C(\C)C[C@@H]3C=C(C/C=C/[C@@](C)(OO)CC[C@H]12)C(=O)O3 | 17.9 µM
45 | CC(C)=CCC/C(C)=C/Cc1c(O)cc2c(c1O)C(=O)C[C@@H](c1ccc(O)cc1)O2 [BONANNIONE A] | 29.9 µM
46 | CC(C)(O)CCCC1(C)Oc2c(O)ccc(CCC(=O)c3ccc(O)cc3O)c2CC1O (stereo not given) | 58.8 µM
47 | CC(C)=CCCC1(C)CCc2c(CCC(=O)c3ccc(O)cc3O)ccc(O)c2O1 (stereo not given) | 59.5 µM
48 | COC(C)(C)CCC/C(C)=C/Cc1c(CCC(=O)c2ccc(O)cc2O)ccc(O)c1O | > 75 µM
49 | CC(C)(O)CCCC1(C)CCc2c(CCC(=O)c3ccc(O)cc3O)ccc(O)c2O1 (stereo not given) | 36.7 µM
50 | C=C1C(=O)O[C@H]2/C=C(\C)C[C@@H]3C=C(CC/C=C(\C)CC[C@H]12)C(=O)O3 | 12.1 µM
51 | COC(C)(C)CCCC1(C)CCc2c(CCC(=O)c3ccc(O)cc3O)ccc(O)c2O1 (stereo not given) | 48.3 µM
52 | C=C1C(=O)O[C@H]2/C=C(\C)C[C@@H]3C=C(CC[C@@H](OO)C(=C)CC[C@H]12)C(=O)O3 | 15.7 µM
53 | C=C1C(=O)O[C@H]2/C=C(\C)C[C@@H]3C=C(C/C=C/[C@@](C)(O)CC[C@H]12)C(=O)O3 | 46.9 µM
54 | CC(C)=CCC/C(C)=C/Cc1c(CCC(=O)c2ccc(O)cc2O)ccc(O)c1O | 42.9 µM
55 | CC1(C)CCC[C@]2(C)Oc3c(O)ccc(CCC(=O)c4ccc(O)cc4O)c3C[C@@H]12 | 34.3 µM
56 | C/C(=C\Cc1c(CCC(=O)c2ccc(O)cc2O)ccc(O)c1O)CCCC(C)(C)O | > 75 µM

System: not listed separately
Test: Inhibition of hedgehog signaling pathway in human HaCaT cells assessed as reduction of BCL2 expression at 13.9 uM after 12 hrs by Western blotting
Assay type: cell-based
Details: not given

Row | Structure (SMILES) | inhibition
57 | C=C1C(=O)O[C@H]2/C=C(\C)C[C@@H]3C=C(CC[C@@H](OO)C(=C)CC[C@H]12)C(=O)O3 | Active
